Key:
[1] = Antagonist activity against CRTh2 receptor in human eosinophils assessed as cell shape change by flow cytometry
[2] = Antagonist activity against CRTh2 receptor in human eosinophils assessed as cell shape change after 4 hrs by flow cytometry

SMILES	IC50 [1] [nM]	IC50 [2] [nM]
CCN(Cc1cc(-c2ncc(OC)cn2)ccc1-c1cc(CC(=O)O)ccc1OC)C(=O)C1CC1 [2-(2'-((N-ethylcyclopropanecarboxamido)methyl)-6-methoxy-4'-(5-methoxypyrimidin-2-yl)biphenyl-3-yl)acetic acid]	18	
CCN(Cc1cc(-c2cnc3ccccc3c2)ccc1-c1cc(CC(=O)O)ccc1OC)C(=O)C1CC1 [2-(2'-((N-ethylcyclopropanecarboxamido)methyl)-6-methoxy-4'-(quinolin-3-yl)biphenyl-3-yl)acetic acid]	12	
CCN(Cc1cc(-c2ccc(F)cn2)ccc1-c1cc(CC(=O)O)ccc1OC)C(=O)C1CC1 [2-(2'-((N-ethylcyclopropanecarboxamido)methyl)-4'-(5-fluoropyridin-2-yl)-6-methoxybiphenyl-3-yl)acetic acid]	23	
CCOc1ccc(-c2ccc(-c3cc(CC(=O)O)ccc3OC)c(CN(CC)C(=O)C3CC3)c2)cn1 [Sodium [2'-[(cyclopropanecarbonyl-ethyl-amino)-methyl]-4'-(6-ethoxy-pyridin-3-yl)-6-methoxy-biphenyl-3-yl]-acetate]	5	1.7
CCN(Cc1cc(-c2cnn(C)c2)ccc1-c1cc(CC(=O)O)ccc1OC)C(=O)C1CC1 [2-(2'-((N-ethylcyclopropanecarboxamido)methyl)-6-methoxy-4'-(1-methyl-1H-pyrazol-4-yl)biphenyl-3-yl)acetic acid]	4	

From BindingDB's records for doi:10.1016/j.bmcl.2010.12.016 (Amira Pharmaceuticals, 2011)
